# According to paper PMC6839601, “Discovery of selective, antimetastatic and anti-cancer stem cell metallohelices via post-assembly modification” (Chemical Science, 2019):
# Key:
# [1] = system: HCT116 p53+/+ colon cancer cells; experiment: Antiproliferative activity (MTT assay), HCT116 p53+/+; type: cell-based, human; conditions: cells treated for 96 h, mean ± SD, read-out: Cell viability IC50, HCT116 p53+/+ (colon)
# From the text: (§1) The human ovarian carcinoma cisplatin-sensitive A2780 cells, cisplatin-resistant A2780cisR (a cisplatin-resistant variant of A2780 cells), human cervical carcinoma HeLa cells, human breast cancer MCF-7 cells and human colorectal carcinoma cells HCT-116 (for experiments performed at the Czech Academy of Sciences) were kindly supplied by Professor B. Keppler, University of Vienna (Austria). Human colon carcinoma cells expressing p53 (HCT116 p53^+/+) were a kind gift of Dr M. Brazdova, Institute of Biophysics, Brno (Czech Republic). […] These solutions were removed, dimethyl sulfoxide was added to each well, and the absorbance at 540 nm was read using a Thermo Scientific Multiskan EX microplate photometer. The IC50 values were determined from a plot of percentage cell survival against drug concentration (in μM). All assays were conducted in triplicate and the mean IC50 ± standard deviation was determined. page 43: 8. […] Cell survival was determined as the absorbance of treated cells minus the blank cell media, divided by the absorbance of the untreated control; this value was expressed as a percentage. The IC50 values were determined from a plot of percentage cell survival against drug concentration (µM). All assays were conducted in triplicate and the mean IC50 ± standard deviation was determined. […]
# HCT116 p53-/- (colon) = experiment: Antiproliferative activity (MTT assay), HCT116 p53-/-; type: cell-based, human
# From the text: as §1
# A2780cisR (ovarian) = experiment: Antiproliferative activity (MTT assay), A2780cisR; type: cell-based, human; conditions: 72 h, mean ± SD, read-out: Cell viability IC50, A2780cisR (ovarian)
# From the text: as §1
# [2] = system: ARPE-19 (non-cancerous) cells; experiment: Antiproliferative activity (MTT assay), ARPE-19; type: cell-based, human; conditions: cells treated for 96 h, mean ± SD, read-out: Cell viability IC50, ARPE-19 (retinal)
# From the text: as §1
# MRC-5 pd30 (lung) = experiment: Antiproliferative activity (MTT assay), MRC-5 pd30; type: cell-based, human; conditions: 72 h, mean ± SD, read-out: Cell viability IC50, MRC-5 pd30 (lung)
# From the text: as §1
# HMF (breast) = experiment: Antiproliferative activity (MTT assay), HMF; type: cell-based; conditions: cells treated for 96 h, mean ± SD, read-out: Cell viability IC50, HMF (breast)
# From the text: as §1
# WI-38 (lung) = experiment: Antiproliferative activity (MTT assay), WI-38; type: cell-based; conditions: cells treated for 96 h, mean ± SD, read-out: Cell viability IC50, WI-38 (lung)
# From the text: as §1
compound,measurement,setting,value
"N.N.[Cl][Pt][Cl] [Cisplatin, cisplatin]",IC50,[1],3.3 ± 0.4 µM
same,loss of activity towards HCT116 p53-/- cells relative to p53+/+ isogenic clones,HCT116 p53-/- (colon); HCT116 p53-/- vs p53+/+ (Table 1),> 2 fold
same,IC50,"HCT116 p53-/- (colon); MTT, cells treated for 96 h, mean ± SD, read-out: Cell viability IC50, HCT116 p53-/- (colon)",7.5 ± 0.7 µM
same,IC50,A2780cisR (ovarian),20 ± 3 µM
same,IC50,[2],6.4 ± 1 µM
same,IC50,MRC-5 pd30 (lung),12 ± 1 µM
same,IC50,HMF (breast),18 ± 2 µM
same,IC50,WI-38 (lung),2200 ± 800 nM
